Experimental data taken from PubChem BioAssay AID608 (Sanford-Burnham Center for Chemical Genomics, 2007).
Calls of active or inactive are those of the source. No rule for the calls is given here.

Biological target: Peptidyl-prolyl cis-trans isomerase FKBP1A (Homo sapiens) (UniProt P62942)
Assay: FKBP12 binders, biophysical, NMR detection (AID 608)
Conditions: NMR binding, purified FKBP12

Peptidyl-prolyl cis-trans isomerase FKBP1A (Homo sapiens), sequence (P62942 whole entry, looked up): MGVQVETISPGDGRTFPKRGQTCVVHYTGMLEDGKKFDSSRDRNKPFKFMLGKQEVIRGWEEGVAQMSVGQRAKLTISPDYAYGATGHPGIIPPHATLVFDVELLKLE

Compound | Kd
CC(C)CCCC(C)C1CCC2C3CC(=O)[C@H]4C[C@@H](O)CC[C@]4(C)C3CC[C@]12C (some centres undefined) | > 4 mM (inactive)
CSc1nsc(SCc2cnc(C)nc2N)n1 | > 4 mM (inactive)
CSc1ccc(C(=S)N2CCN(C)CC2)cc1 | > 4 mM (inactive)
Cc1ccc(C)n1-c1ccc(C(=O)N2CCOCC2)cc1 | > 4 mM (inactive)
O=C(O)c1ccc2c(c1)CCO2 | > 4 mM (inactive)
CN(C)c1ccc(/C=C2/NC(=S)NC2=O)cc1 | > 4 mM (inactive)
NS(=O)(=O)c1ccc(F)cc1 | > 4 mM (inactive)
COC(=O)C1=C(C)N(c2cccc(C(C)=O)c2)C(=O)C1 | > 4 mM (inactive)
OC/C=C/c1ccc(O)c(O)c1 | > 4 mM (inactive)
OC[C@H]1O[C@@](CO)(O[C@@H]2O[C@H](CO)[C@@H](O)[C@H](O)[C@H]2O)[C@@H](O[C@@H]2O[C@H](CO)[C@@H](O)[C@H](O)[C@H]2O)[C@@H]1O | > 4 mM (inactive)
O=C1CCC([N+](=O)[O-])C(c2ccccc2F)N1 (centres undefined) | > 4 mM (inactive)
CCOC(=O)c1ccc(F)c(F)c1 | > 4 mM (inactive)
O=c1ccn(Cc2ccccc2)c(=O)[nH]1 | > 4 mM (inactive)
C=C1C(=O)O[C@@H]2C3OC3(C)CC/C=C(\C)CC[C@@H]12 (some centres undefined) | > 4 mM (inactive)
O=c1cc(-c2cc(O)c(O)c(O)c2)oc2cc(O)cc(O)c12 | > 4 mM (inactive)
O=C(NCc1cccc(Cl)c1)c1ccco1 | > 4 mM (inactive)
CSc1ccccc1NC(=O)c1ccco1 | > 4 mM (inactive)
CC(=O)N1CCn2c3c(c(=O)c4cc(C)ccc42)CCC31 (centres undefined) | > 4 mM (inactive)
CCn1c(-c2ccccc2)n[nH]c1=S | > 4 mM (inactive)
O=C(Nc1cccc2cccnc12)c1cccnc1 | > 4 mM (inactive)
O=c1cnnc(N2CCCCC2)[nH]1 | > 4 mM (inactive)
CC1(C)C2CC(=O)[C@]3(C)C(CC[C@@]4(C)[C@H](c5ccoc5)OC(=O)[C@H]5O[C@]543)[C@@]2(C)C=C[C@@H]1O (some centres undefined) | > 4 mM (inactive)
Nc1cccnc1N1CCOCC1 | > 4 mM (inactive)

Compound | Kd
OC1(c2ccc(Cl)cc2)CCNCC1 | > 4 mM (inactive)
COc1cc([C@@H]2c3cc4c(cc3C(OC3O[C@@H]5COC(C)O[C@H]5[C@H](O)[C@H]3O)C3COC(=O)[C@@H]32)OCO4)cc(OC)c1O (some centres undefined) | > 4 mM (inactive)
CC1(C)CC2C1CC[C@]1(C)CCC3C(C(=O)O)CC(=O)O[C@@]32C1 (some centres undefined) | > 4 mM (inactive)
Nc1cccc2cccnc12 | > 4 mM (inactive)
Cn1nnc2cc(CN)ccc21 | > 4 mM (inactive)
Cc1c(C(=O)Nc2ccncc2)oc2c1C(=O)CC(C)(C)C2 | > 4 mM (inactive)
Nc1cccc(OC(F)(F)F)c1 | > 4 mM (inactive)
Cc1c(N=CN(C)C)c(=O)n(-c2ccccc2)n1C | > 4 mM (inactive)
c1ccc(-c2nnc(CNCc3ccco3)o2)cc1 | > 4 mM (inactive)
CC(CC(=O)NN)C1(O)CCCCC1 (centres undefined) | > 4 mM (inactive)
CC1(C)C2CC(=O)[C@]3(C)C(CC[C@@]4(C)[C@H](c5ccoc5)OC(=O)[C@H]5O[C@]543)[C@@]2(C)C(=O)C[C@H]1O (some centres undefined) | > 4 mM (inactive)
c1csc(-c2nnc3ccccn23)c1 | > 4 mM (inactive)
Nc1cccc(C(=O)Nc2ccc(N)cc2Cl)c1 | > 4 mM (inactive)
c1ccc(-c2nsc(N3CCCNCC3)n2)cc1 | > 4 mM (inactive)
NC(=O)C1CCN(c2nccc(C(F)(F)F)n2)CC1 | > 4 mM (inactive)
COc1ccc(-c2cc(=O)c3c(OC)c(OC)c(OC)c(OC)c3o2)cc1 | > 4 mM (inactive)
OCc1cccc2nonc12 | > 4 mM (inactive)
CC(=O)Nc1cccc(-c2nnc3n2CC(C)S3)c1 (centres undefined) | > 4 mM (inactive)
Cc1cccc(C)c1NC(=O)/C=C/C(=O)O | > 4 mM (inactive)
N#CCc1nc2ccccc2s1 | > 4 mM (inactive)
Nc1ccc(N2CCCCC2)cc1 | > 4 mM (inactive)
CN1C(=O)C2CC=C(Cl)CC2C1=O (centres undefined) | > 4 mM (inactive)
C/C=C(\C)C(=O)OC1[C@@H]2C=C3C(CC[C@]4(C)C3CC(=O)O[C@H]4c3ccoc3)C(C)(C2=O)[C@@H](C(O)C(=O)OC)C1(C)C (some centres undefined) | > 4 mM (inactive)

Compound | Kd
Nc1cccc(-n2cnnn2)c1 | > 4 mM (inactive)
O=C(COc1ccccc1)N1CCOCC1 | inactive
O=C(C1CCNCC1)N1CCCCCC1 | > 4 mM (inactive)
O=C1NC(=Nc2ccc(O)cc2)S/C1=C/c1ccco1 | > 4 mM (inactive)
CC(C)c1ccccc1NC(=O)c1cnccn1 | > 4 mM (inactive)
O=C(O)c1ccc2c(c1)OCCO2 | > 4 mM (inactive)
C[C@@H]1CC[C@@]23CCC4(C)[C@@](C=CC5[C@@]6(C)CCC(=O)C(C)(C)C6CC[C@]54C)(OC2=O)C3[C@H]1C (some centres undefined) | > 4 mM (inactive)
O=C(NCc1ccccn1)c1ccc(Cl)cc1Cl | > 4 mM (inactive)
Cc1c(CO)cnn1-c1ccc(F)cc1 | > 4 mM (inactive)
O=C(O)c1cc2ccccc2[nH]1 | > 4 mM (inactive)
Cc1ccc(/C=N/n2c(C)nnc2C)cc1 | > 4 mM (inactive)
O=S1(=O)CCC(NC(=S)Nc2ccccn2)C1 (centres undefined) | > 4 mM (inactive)
Oc1cc(O)cc(/C=C/c2ccccc2)c1 | > 4 mM (inactive)
CC1O[C@@H](Oc2c(-c3ccc(O)c(O)c3)oc3cc(O)cc(O)c3c2=O)[C@H](O)[C@H](O)[C@H]1O (some centres undefined) | > 4 mM (inactive)
COC(=O)c1oc2ccc(Cl)cc2c1NC(C)=O | > 4 mM (inactive)
O=S(=O)(c1cccc2cccnc12)N1CCOCC1 | > 4 mM (inactive)
CC(=O)Nc1ccc2c(c1)CCCC2=O | > 4 mM (inactive)
O=C1c2ccccc2C(=O)N1/N=C/c1ccc[nH]1 | > 4 mM (inactive)
O=C(CSc1ncn[nH]1)c1ccc2c(c1)OCO2 | > 4 mM (inactive)
Nc1ncnc2nc[nH]c12 | > 4 mM (inactive)
O=C(O)C1(O)C[C@@H](O)C(O)[C@H](O)C1 (some centres undefined) | > 4 mM (inactive)
c1ccc(-c2noc(-c3ccco3)n2)nc1 | > 4 mM (inactive)
O=[n+]1c2c(n([O-])c3ccccc31)CCCC2 | > 4 mM (inactive)

Compound | Kd
Cc1ccc(-c2nc(-c3cccnc3)no2)c(C)c1 | > 4 mM (inactive)
COCCn1c(C)cc(O)cc1=O | > 4 mM (inactive)
Cc1cc(=O)n2ncn(Cc3ccccc3)c2n1 | > 4 mM (inactive)
NC(=O)C1CC2C=CC1C2 (centres undefined) | > 4 mM (inactive)
Cc1nc2ccccc2c2c1C(=O)N(N)C2=O | > 4 mM (inactive)
O=S1(=O)CCC(Nc2ccccc2)C1 (centres undefined) | > 4 mM (inactive)
O=C(c1cccnc1Cl)N1CCOCC1 | > 4 mM (inactive)
CCCOn1nnnc1-c1ccccc1 | > 4 mM (inactive)
Cc1n[nH]c(C)c1CC(=O)O | > 4 mM (inactive)
CNC(=O)C(=O)Nc1c(C)cccc1C | > 4 mM (inactive)
C[n+]1ccn(C/C(N)=N/O)c1 | > 4 mM (inactive)
O=C(O)c1ccc2ccccc2n1 | > 4 mM (inactive)
COC(=O)c1ccc(NC(=O)CC2NCCNC2=O)cc1 (centres undefined) | > 4 mM (inactive)
O=C(c1ccc(F)cc1)N1CCN(c2ncccn2)CC1 | > 4 mM (inactive)
O=C(O)CN1C(=O)c2ccc(C(=O)O)cc2C1=O | > 4 mM (inactive)
COc1cc(-c2coc3cc(OCc4ccccc4)c(OC)c(O)c3c2=O)cc(O)c1OC | > 4 mM (inactive)
COC(=O)c1ccc(C(=S)N2CCOCC2)cc1 | > 4 mM (inactive)
Cc1cc(=O)c2c(O)c(C)c(O)cc2o1 | > 4 mM (inactive)
Cc1cc(C)cc(NS(=O)(=O)N2CCCCC2)c1 | inactive
O=C1CN(c2ccccc2)CC(=O)N1 | > 4 mM (inactive)
Nc1ncnc(Nc2ccccc2C(F)(F)F)n1 | > 4 mM (inactive)
CS(=O)(=O)N/N=C/c1cccs1 | > 4 mM (inactive)
Cc1nc2[nH]onc2c2nccc(=O)c12 | > 4 mM (inactive)

Compound | Kd
O=C(O)CCN1CCc2ccccc2C1c1ccncc1 (centres undefined) | > 4 mM (inactive)
CC(CCC(=O)O)[C@H]1CCC2C3C[C@H](O)[C@@H]4C[C@H](O)CC[C@]4(C)C3CC[C@@]21C (some centres undefined) | > 4 mM (inactive)
Cc1nn(C)c(Cl)c1S(=O)(=O)N1CCOCC1 | > 4 mM (inactive)
O=C(O)CN(CCCc1ccccc1)CC(=O)O | > 4 mM (inactive)
CCCCCc1c2c(cc(O)c1C(=O)O)OC(=O)c1c(cc(OC)cc1C(=O)CCCC)O2 | > 4 mM (inactive)
Cc1nc(-c2ccc(C(=O)O)s2)cs1 | > 4 mM (inactive)
COC(=O)c1ccccc1C | > 4 mM (inactive)
S=C(NCc1ccco1)NN1CCOCC1 | > 4 mM (inactive)
CSc1nc2cc(F)c(F)cc2n1C | > 4 mM (inactive)
CC(=O)Nc1ccccc1-c1ccccc1NC(C)=O | > 4 mM (inactive)
OC[C@H]1O[C@@H](O[C@H]2[C@H](O)[C@@H](O)[C@@H](O)O[C@@H]2CO)[C@H](O)[C@@H](O)[C@@H]1O | > 4 mM (inactive)
O=c1ccc2nc3ccccc3c(=O)n2[nH]1 | > 4 mM (inactive)
O=C(O)c1ccnc2ccccc12 | > 4 mM (inactive)
Nc1nnc(COc2cccc(C(F)(F)F)c2)s1 | > 4 mM (inactive)
O=C(NCC1CCNCC1)c1ccncc1 | > 4 mM (inactive)
COc1cc2c(cc1O)CC1c3c(cc(O)c(OC)c3-2)CCN1C (centres undefined) | > 4 mM (inactive)
Nc1c(C(=O)O)sc2ncccc12 | > 4 mM (inactive)
CC1(C)C(=O)C=C[C@@]2(C)C1CC(=O)[C@]1(C)C2CC[C@@]2(C)[C@H](c3ccoc3)OC(=O)[C@H]3O[C@]321 (some centres undefined) | > 4 mM (inactive)
O=C(NC(=S)NCc1cccnc1)c1ccco1 | > 4 mM (inactive)
Cc1cc(OCC(=O)N2CCOCC2)ccc1NC(=O)OCc1ccccc1 | > 4 mM (inactive)
O=C(N1CCOCC1)N1CCN(c2ccccn2)CC1 | > 4 mM (inactive)
CC(=O)Nc1c(C)n(C)n(-c2ccccc2)c1=O | > 4 mM (inactive)
